The text below walks through data of publication PMC12589732, “Chemical composition and biological effects of Lavandula angustifolia Mill., essential oils” (AMB Express, 2025).

The structures appear in SMILES notation.

The target in this assay is T1, Tyrosinase.
T1 construct: gene PPO3
Kind of assay: L-DOPA oxidation, […] nm. The class given is biochemical. The conditions noted are these: substrate L-DOPA 5 mM stock; 50 mM phosphate pH 6.5; 37 °C; 10 min preincubation.

`O=c1c(O)c(-c2ccc(O)c(O)c2)oc2cc(O)cc(O)c12` [Quercetin] yielded a Dermatoprotective of 242.99 ± 2.67 µg/mL.
